Assay results: ChEMBL document CHEMBL1201862, “PubChem BioAssay data set” (2004)
Activity calls are given as the source filed them.

How the values were obtained:
[1] = biological target: T1, Hexokinase HKDC1 (Homo sapiens, UniProt Q2TB90); assay: HKDC1 hexokinase inhibitors, dose response, biochemical, W721R variant (AID 504729); format: functional
T1 sequence (Q2TB90 whole entry): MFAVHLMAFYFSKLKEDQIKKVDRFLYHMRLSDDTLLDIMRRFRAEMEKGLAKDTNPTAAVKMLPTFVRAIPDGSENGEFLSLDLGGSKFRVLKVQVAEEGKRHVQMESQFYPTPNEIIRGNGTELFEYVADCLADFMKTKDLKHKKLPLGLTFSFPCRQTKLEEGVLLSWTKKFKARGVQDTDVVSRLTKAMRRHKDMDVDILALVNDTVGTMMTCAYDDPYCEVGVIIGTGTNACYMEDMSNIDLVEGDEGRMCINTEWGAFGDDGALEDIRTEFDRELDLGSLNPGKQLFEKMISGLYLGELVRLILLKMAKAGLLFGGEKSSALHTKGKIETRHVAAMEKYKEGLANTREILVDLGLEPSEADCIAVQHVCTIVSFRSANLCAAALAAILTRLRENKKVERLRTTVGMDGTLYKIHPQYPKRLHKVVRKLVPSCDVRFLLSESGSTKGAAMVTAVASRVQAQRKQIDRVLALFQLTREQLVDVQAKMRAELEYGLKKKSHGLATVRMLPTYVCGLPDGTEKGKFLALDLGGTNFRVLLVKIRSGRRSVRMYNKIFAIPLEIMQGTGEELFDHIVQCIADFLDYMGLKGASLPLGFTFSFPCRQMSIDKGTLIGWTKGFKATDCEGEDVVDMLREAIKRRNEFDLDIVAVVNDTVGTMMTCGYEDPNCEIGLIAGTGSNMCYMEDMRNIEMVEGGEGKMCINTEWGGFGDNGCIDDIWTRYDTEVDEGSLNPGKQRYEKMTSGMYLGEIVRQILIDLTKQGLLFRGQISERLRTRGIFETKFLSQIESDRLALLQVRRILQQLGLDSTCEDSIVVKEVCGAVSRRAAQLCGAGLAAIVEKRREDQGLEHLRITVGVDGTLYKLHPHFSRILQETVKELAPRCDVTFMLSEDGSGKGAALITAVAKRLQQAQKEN

[2] = biological target: T2, Heat shock factor protein 1 (Mus musculus, UniProt P38532); assay: inhibition of MG132-induced HSE-luciferase signal, confirmation, cell-based, NIH3T3, luminescence, dose retest (AID 2382); format: functional;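 further: NIH3T3 fibroblasts with HSF1-driven luciferase reporter stressed by proteasome inhibitor MG132; luminescence from HSF1-driven luciferase expression after 8 hours of MG132 stress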
T2 sequence (P38532 whole entry): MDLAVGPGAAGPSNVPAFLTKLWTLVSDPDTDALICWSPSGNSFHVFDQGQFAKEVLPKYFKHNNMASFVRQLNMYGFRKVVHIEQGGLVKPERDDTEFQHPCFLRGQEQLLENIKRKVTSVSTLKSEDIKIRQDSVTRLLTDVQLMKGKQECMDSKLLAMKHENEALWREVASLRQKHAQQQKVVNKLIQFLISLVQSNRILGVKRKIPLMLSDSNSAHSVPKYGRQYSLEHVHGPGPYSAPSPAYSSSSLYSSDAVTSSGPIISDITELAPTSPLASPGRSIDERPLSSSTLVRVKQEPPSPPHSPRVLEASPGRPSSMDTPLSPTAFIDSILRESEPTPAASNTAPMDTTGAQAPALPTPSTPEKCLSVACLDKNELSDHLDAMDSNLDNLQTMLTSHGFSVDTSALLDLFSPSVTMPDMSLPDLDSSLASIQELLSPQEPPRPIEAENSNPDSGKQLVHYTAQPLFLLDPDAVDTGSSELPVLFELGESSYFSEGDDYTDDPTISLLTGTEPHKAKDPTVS

[3] = HEp-2 cell cytotoxicity, dose response, cytotoxicity control for RSV inhibitor project, HTS (AID 2410); format: functional; conditions: human respiratory syncytial virus
[4] = biological target: T3, 1-phosphatidylinositol 4,5-bisphosphate phosphodiesterase beta-3 (Homo sapiens, UniProt Q01970); assay: Fluorescence-based biochemical high throughput dose response assay to identify inhibitors of phospholipase C isozymes (PLC-B3).
T3 sequence (Q01970 whole entry): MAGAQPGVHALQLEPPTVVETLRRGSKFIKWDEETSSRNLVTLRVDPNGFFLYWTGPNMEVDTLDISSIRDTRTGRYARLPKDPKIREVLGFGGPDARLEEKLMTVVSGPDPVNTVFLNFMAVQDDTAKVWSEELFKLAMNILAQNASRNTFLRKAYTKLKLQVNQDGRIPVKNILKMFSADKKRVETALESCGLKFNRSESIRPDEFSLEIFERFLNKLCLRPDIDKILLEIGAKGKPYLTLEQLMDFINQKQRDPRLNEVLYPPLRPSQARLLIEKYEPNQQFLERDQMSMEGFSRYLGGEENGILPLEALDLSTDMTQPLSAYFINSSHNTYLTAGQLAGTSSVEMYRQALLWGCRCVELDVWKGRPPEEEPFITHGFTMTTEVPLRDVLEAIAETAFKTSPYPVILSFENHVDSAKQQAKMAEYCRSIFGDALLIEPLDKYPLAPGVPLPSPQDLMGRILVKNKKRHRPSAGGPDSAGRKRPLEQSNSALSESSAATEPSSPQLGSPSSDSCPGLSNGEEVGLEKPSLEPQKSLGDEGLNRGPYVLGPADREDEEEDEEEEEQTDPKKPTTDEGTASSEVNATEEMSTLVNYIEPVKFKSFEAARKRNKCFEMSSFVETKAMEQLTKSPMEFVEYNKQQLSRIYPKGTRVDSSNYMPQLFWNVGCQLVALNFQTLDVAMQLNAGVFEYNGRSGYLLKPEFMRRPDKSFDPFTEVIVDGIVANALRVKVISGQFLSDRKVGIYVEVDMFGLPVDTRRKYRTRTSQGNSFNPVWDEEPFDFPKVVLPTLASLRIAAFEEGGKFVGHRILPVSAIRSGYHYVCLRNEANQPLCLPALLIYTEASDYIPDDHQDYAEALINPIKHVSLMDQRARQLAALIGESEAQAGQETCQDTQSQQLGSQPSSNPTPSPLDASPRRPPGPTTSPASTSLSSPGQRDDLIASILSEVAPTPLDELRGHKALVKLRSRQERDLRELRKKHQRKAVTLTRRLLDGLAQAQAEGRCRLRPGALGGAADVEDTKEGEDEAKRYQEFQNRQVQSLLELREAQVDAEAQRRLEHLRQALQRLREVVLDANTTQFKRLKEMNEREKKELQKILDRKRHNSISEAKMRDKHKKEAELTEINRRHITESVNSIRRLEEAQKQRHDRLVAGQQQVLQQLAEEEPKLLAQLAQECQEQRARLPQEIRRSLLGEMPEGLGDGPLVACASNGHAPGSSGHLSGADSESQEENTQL

[5] = tested on: Streptococcus sp. 'group A'; assay: growth inhibition of control SK(-) GAS strain, dose response, counter-screen for streptokinase expression inhibitor project, luminescence, kanamycin, BacTiterGlo, confirmation (AID 1900); format: functional, organism-based
[6] = tested on: Streptococcus; assay: Group A Streptococcus viability loss, dose response, counter-screen for streptokinase expression inhibitor project, luminescence, BacTiterGlo (AID 1915); format: functional, organism-based;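 further: potency for reduction of bacterial viability or growth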
[7] = growth suppression of PTEN-null colon cells, dose response, cell-based, HCT116 PTEN knockout (AID 1047); format: functional;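 further: HCT116 colon tumor cells with PTEN knocked out; cells exposed to compound for 60 hours before readout; potency for loss of cell viability measured by luminescence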

## COC(=O)C[C@]1(C(=O)OC)CN(C#N)N(c2ccc(Cl)cc2)C12c1ccccc1-c1ccccc12
[1]
  IC50: 3.35 µM (active)
[2]
  EC50: 2.74 µM (active)

## O=C(Nc1ccc(C#Cc2ccccc2)cc1)C1CC1
[3]
  CC50: 26.9 µM (active)

## Cc1ccccc1NC1=C/C(=N\S(=O)(=O)c2ccc(C(=O)O)cc2)c2ccccc2C1=O
[4]
  IC50: > 122 µM (inactive)
[5]
  EC50: 1.67 µM (active)
[1]
  IC50: 2.53 µM (active)
[6]
  EC50: 5.01 µM (active)

## Cc1ccc(NC2=C/C(=N/S(=O)(=O)c3cccs3)c3ccccc3C2=O)cc1
[7]
  EC50: 3.56 µM (active)

## COc1ccc(-c2cc(-c3ccc(C)cc3)[nH]n2)c(O)c1
[5]
  EC50: 11 µM (active)
[6]
  EC50: 15.8 µM (active)
